Assay results reported in patent publication US20260008815A1, “CYCLIC PEPTIDE OR SALT THEREOF, AND USES THEREOF” (FUJIFILM Corporation, priority 2023, published 2026).
Bridge positions count the residues as written; N and C are the ends. Ends that are not written are not given here. COCH2 = acetyl group that carries the bridge

Columns and labels:
[1] = target: T1, Recombinant Human FGFR2 alpha (IIIc) Fc Chimera Protein (Homo sapiens, UniProt P21802); test: SPR binding affinity of chemically synthesized cyclic peptide to immobilized FGFR; settings: SPR binding amount at 10 nmol/L cyclic peptide, 25° C., per one molecule of FGFR; chemically synthesized product
T1 construct: Fc (chimera); purchased R&D systems 712-FR-050
Description: The binding affinity of the cyclic peptide to FGFR was evaluated using a surface plasmon resonance (SPR) method.
A CM5 sensor chip (Cytiva, 29149603) was set in Biacore-T200 (manufactured by Cytiva) which is a surface plasmon resonance device, and an HBS-EP buffer (Cytiva, BR100826) was added as a running buffer at a flow rate of 10 μL/min to equilibrate the flow channel. Next, 70 μL of a mixed aqueous solution of 0.2 mol/L 1-(3-dimethylaminopropyl)-3-ethylcarbodiimide (EDC) and 0.05 mol/L N-hydroxysuccinimide (NHS) was added to activate the sensor chip. Then, Recombinant Human FGFR2 alpha (IIIc) Fc Chimera Protein CF (R&D systems, 712-FR-050) prepared at 50 nmol/L in an Acetate 4.5 buffer (Cytiva, BR100350) was added thereto to perform immobilization at about 5000 RU. Thereafter, the blocking treatment was performed with an ethanolamine solution. In addition, in another flow channel of the same sensor chip, blocking treatment was performed immediately after activation without immobilizing FGFR.
A cyclic peptide diluted to 10 nmol/L using HBS-EP was added to each flow channel of the FGFR-immobilized sensor chip produced above at 25° C. for 10 minutes, then HBS-EP was allowed to flow as a running buffer for 30 minutes, and the binding of the cyclic peptide to FGFR was measured. Thereafter, a regeneration treatment of removing the bound cyclic peptide was performed by repeating the flow of a regeneration liquid in which sodium chloride powder was dissolved in Glysine 1.5 (Cytiva, BR100354) to a final concentration of 0.15 mol/L for 1 minute in each flow channel twice. The binding amount of the cyclic peptide was evaluated from the difference between the measured value of Biacore-T200 in the flow channel in which FGFR was immobilized and the measured value of Biacore-T200 in the flow channel in which FGFR was not immobilated, in a case where a 10 nmol/L cyclic peptide was allowed to flow.
The binding amount of the cyclic peptide evaluated above was normalized to the binding amount of the cyclic peptide molecules per one molecule of FGFR using the molecular weights of the cyclic peptide and FGFR, and the binding affinity to FGFR was evaluated according to the following evaluation criteria. The evaluation result preferably satisfies the evaluation criteria A, B, or C.

[2] = Molecular stability after reducing agent (DTT) treatment, LC; format: physicochemical; settings: residual rate after DTT aqueous solution, room temperature, 1 hour
Description: The molecular stability of the cyclic peptide was evaluated by analyzing an aqueous solution of the cyclic peptide treated with a reducing agent by liquid chromatography (LC).
The reducing agent treatment was performed under the following conditions based on the concentration of glutathione contained in the cells. 25 μL of a 0.2 mg/mL cyclic peptide aqueous solution was prepared, 58.8 μL of a 12.6 mmol/L DTT aqueous solution was added to the aqueous solution, and the mixture was incubated at room temperature for 1 hour to obtain an aqueous solution of the cyclic peptide treated with a reducing agent. The DTT aqueous solution was used by diluting a 1 mol/L (+−)-dithiothreitol (DTT) solution (FUJIFILM Wako Pure Chemical Corporation, 044-33871) with water. The total area of all the peaks in LC/MS of the cyclic peptide before the reducing agent treatment was set to 100%, and the proportion of the total area of all the peaks in LC/MS of the aqueous solution of the cyclic peptide treated with the reducing agent was determined to calculate the residual rate of the cyclic peptide, and the molecular stability was evaluated according to the following evaluation criteria. The evaluation result preferably satisfies the evaluation criteria A, B, or C.
The LC used for the evaluation of molecular stability was set to the following conditions. • LC device: Prominence series (pump, column oven, autosampler, detector) (manufactured by Shimadzu Corporation) • Detector: photodiode array detector (SPD-M20A), measurement wavelength of 280 nm • Column: TSKgel ODS-100V, inner diameter of 4.6 mm×length of 150 mm, particle diameter of 5 μm (manufactured by Tosoh Corporation) • Eluent A: solution containing 0.1% trifluoroacetic acid as solute, and solvent is 100% water • Eluent B: solution containing 0.1% trifluoroacetic acid as solute, and solvent is 100% acetonitrile • Flow rate: 1.0 mL/min • Injection amount: 25 μL • Gradient: 20% to 50%: Eluent B (0 to 15 minutes), 100%: Eluent B (15 minutes) • Column temperature: 40° C.

[3] = tested on: BaF3 cells stably expressing FGFR (avian); test: BaF3 cell proliferation-promoting effect; format: cell-based; settings: number of viable cells at the addition concentration (0.001 to 10 nmol/L) giving the largest number; 2 nights; negative control about 100 cells/well
Description: (§1) The FGFR phosphorylation ability of the cyclic peptide complex was evaluated using the BaF3 cell proliferation-promoting effect in which FGFR was stably expressed.
(§2) BaF3 cells stably expressing FGFR were established by introducing a vector (human: Sino Biologicals, HG10824-UT, bovine: sequence of Accession No. F1MNW2 was introduced into pCDNA3.1/Hygro(+) Mammalian Expression Vector (Thermo, V87020), porcine: sequence of Accession No. A0A4X1SNN3 was introduced into pCDNA3.1/Hygro(+) Mammalian Expression Vector (Thermo, V87020), and avian: sequence of Accession No. A0A8V0XB17 was introduced into pCDNA3.1/Hygro(+) Mammalian Expression Vector (Thermo, V87020)) into which FGFR gene had been incorporated, into BaF3 cells using NucleoFector (Lonza) and performing drug selection of cells into which the FGFR gene had been introduced using hygromycin.
(§3) The evaluation of the proliferation-promoting effect of BaF3 cells in which FGFR is stably expressed was performed by the following method. First, RPMI-1640 with L-Glutamine and Phenol Red (FUJIFILM Wako Pure Chemical Corporation, 189-02025) and Fetal Bovine Serum (Thermo, 10270-106) were mixed at a volume ratio of 9:1, and then heparin (STEM CELL, 07980) was added thereto such that the final concentration thereof was 8 μg/mL, thereby preparing a culture medium for evaluation (hereinafter, described as RPMI (10% FBS) medium). Next, the BaF3 cells in which FGFR had been stably expressed were washed twice with RPMI (10% FBS) culture medium, suspended in RPMI (10% FBS) culture medium in which the cyclic peptide complex had been dissolved to a final concentration of 0.001 to 10 nmol/L, and seeded in a 384-well plate. In this case, a condition in which the cyclic peptide complex was not added as a negative control was prepared. After culturing at 37° C. (5% CO2) for 2 nights, Hoechst 33342, Trihydrochloride, Trihydrate-10 mg/mL Solution in Water (Thermo, H3570), -Cellstain (registered trademark)-Calcein-AM solution (1 mg/mL DMSO solution) (DOJINDO, C396), and -Cellstain (registered trademark)-PI solution (DOJINDO, P378) were each added to RPMI (10% FBS) culture medium in a volume amount of 1/1,000 at the final concentration, and live/dead staining of the cells were performed by allowing to stand at room temperature for 1 hour, and imaging was performed using a confocal microscope (Yokogawa Electric Corporation, CQ1). The number of viable cells was calculated from the imaging data, and the cell proliferation-promoting effect was evaluated according to the following evaluation criteria. The number of viable cells in the negative control was about 100 cells/well. The evaluation result preferably satisfies the evaluation criteria A, B, or C.
(§4) At an addition concentration of the cyclic peptide complex having the largest number of viable cells, evaluation criteria is as follows.

[4] = tested on: BaF3 cells stably expressing FGFR (bovine); test: BaF3 cell proliferation-promoting effect; format: cell-based; settings: number of viable cells at the addition concentration (0.001 to 10 nmol/L) giving the largest number; 2 nights; negative control about 100 cells/well
Description: as §1, §2, §3, §4

[5] = tested on: BaF3 cells stably expressing FGFR (human); test: BaF3 cell proliferation-promoting effect; format: cell-based; settings: number of viable cells at the addition concentration (0.001 to 10 nmol/L) giving the largest number; 2 nights; negative control about 100 cells/well
Description: as §1, §2, §3, §4

[6] = tested on: BaF3 cells stably expressing FGFR (porcine); test: BaF3 cell proliferation-promoting effect; format: cell-based; settings: number of viable cells at the addition concentration (0.001 to 10 nmol/L) giving the largest number; 2 nights; negative control about 100 cells/well
Description: as §1, §2, §3, §4

[7] = Molecular stability after alkali treatment, LC; format: physicochemical; settings: 0.5 mol/L sodium hydroxide aqueous solution added, room temperature, 3 hours
Description: In addition, the stability of the cyclic peptide (SEQ ID NO: 450) containing a cysteine residue in the cyclized portion and the cyclic peptide (SEQ ID NO: 442) containing a homocysteine residue in the cyclized portion was compared under the following alkali treatment, which is a more severe condition.
The alkali treatment was performed by the following method. 25 μL of a 0.2 mg/ml cyclic peptide aqueous solution was prepared, 58.8 μL of a 0.5 mol/L sodium hydroxide aqueous solution was added to the aqueous solution, and the mixture was incubated at room temperature for 3 hours to obtain an aqueous solution of the cyclic peptide alkali-treated. The total area of all the peaks in LC/MS of the cyclic peptide before the alkali treatment was set to 100%, and the proportion of the total area of all the peaks in LC/MS of the aqueous solution of the cyclic peptide alkali-treated was determined to calculate the residual rate of the cyclic peptide.
The LC conditions used for the evaluation of molecular stability are the same as those in the measurement of the above-described cyclic peptide treated with a reducing agent.

T1 sequence (P21802 with tags, fused parts or gaps limits assumed): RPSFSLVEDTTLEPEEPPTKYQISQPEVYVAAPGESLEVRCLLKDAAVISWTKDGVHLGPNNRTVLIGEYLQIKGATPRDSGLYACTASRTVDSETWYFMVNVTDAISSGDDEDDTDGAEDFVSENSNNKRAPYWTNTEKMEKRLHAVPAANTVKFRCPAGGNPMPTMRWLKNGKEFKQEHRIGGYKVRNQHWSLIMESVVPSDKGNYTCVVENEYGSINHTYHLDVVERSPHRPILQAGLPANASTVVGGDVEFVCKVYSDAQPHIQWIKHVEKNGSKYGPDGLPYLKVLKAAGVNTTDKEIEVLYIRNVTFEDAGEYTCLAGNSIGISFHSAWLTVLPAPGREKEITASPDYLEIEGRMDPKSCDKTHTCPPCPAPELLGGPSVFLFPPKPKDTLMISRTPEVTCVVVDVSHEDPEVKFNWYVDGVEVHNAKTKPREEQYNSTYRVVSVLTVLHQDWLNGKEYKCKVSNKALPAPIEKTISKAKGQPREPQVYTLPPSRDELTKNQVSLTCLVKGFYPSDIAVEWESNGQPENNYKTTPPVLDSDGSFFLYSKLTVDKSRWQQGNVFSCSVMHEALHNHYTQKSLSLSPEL

Substance | Evaluation result of binding affinity to FGFR [1] | Evaluation result of reductive stability [2] | Evaluation result of cell proliferative properties Avian [3] | Evaluation result of cell proliferative properties Bovine [4] | Evaluation result of cell proliferative properties Human [5] | Evaluation result of cell proliferative properties Porcine [6] | residual rate of the cyclic peptide [7] [%]
454 (XHENYLDPEQYQYFHYFKYKKK; Description of Artificial Sequence: Cyclic peptide) [compound 454] | C (The binding amount is 0.1 molecules of cyclic peptide/one molecule of FGFR or more and less than 0.5 molecules of cyclic peptide/one molecule of FGFR.) | B (The residual rate of the cyclic peptide is 70% or more and less than 90%) |  |  |  |  | 
455 (KCPQNFINPVQWRYFQHYKNGSGSGSSGSSSGSSKCPQNFINPVQWRYFQHYKN; also: cyclic peptide) [compound 455] |  |  | C (The number of viable cells is 200 cells/well or more and less than 400 cells/well.) | B (The number of viable cells is 400 cells/well or more and less than 1,000 cells/well.) | A (The number of viable cells is 1,000 cells/well or more.) | A (The number of viable cells is 1,000 cells/well or more.) | 
456 (QCPQNFINPVQWRYFQHYKNKQCPQNFINPVQWRYFQHYKNK; also: cyclic peptide) [compound 456] |  |  | A (The number of viable cells is 1,000 cells/well or more.) | A (The number of viable cells is 1,000 cells/well or more.) | A (The number of viable cells is 1,000 cells/well or more.) | A (The number of viable cells is 1,000 cells/well or more.) | 
457 (QCPQNFINPVQWRYFQHYKNKQCPQNFINPVQWRYFQHYKNK; also: cyclic peptide) [compound 457] |  |  | A (The number of viable cells is 1,000 cells/well or more.) | A (The number of viable cells is 1,000 cells/well or more.) | A (The number of viable cells is 1,000 cells/well or more.) | A (The number of viable cells is 1,000 cells/well or more.) | 
458 (QCPQNFINPVQWRYFQHYKNKQCPQNFINPVQWRYFQHYKNK; also: cyclic peptide) [compound 458] |  |  | A (The number of viable cells is 1,000 cells/well or more.) | A (The number of viable cells is 1,000 cells/well or more.) | A (The number of viable cells is 1,000 cells/well or more.) | A (The number of viable cells is 1,000 cells/well or more.) | 
459 (QCPQNFINPVQWRYFQHYKNQCPQNFINPVQWRYFQHYKNK; also: cyclic peptide) [compound 459] |  |  | B (The number of viable cells is 400 cells/well or more and less than 1,000 cells/well.) | B (The number of viable cells is 400 cells/well or more and less than 1,000 cells/well.) | A (The number of viable cells is 1,000 cells/well or more.) | A (The number of viable cells is 1,000 cells/well or more.) | 
460 (YCEENYLDPEQYQYFIYFKYKYCEENYLDPEQYQYFIYFKYK; also: cyclic peptide) [compound 460] |  |  | A (The number of viable cells is 1,000 cells/well or more.) | A (The number of viable cells is 1,000 cells/well or more.) | A (The number of viable cells is 1,000 cells/well or more.) | A (The number of viable cells is 1,000 cells/well or more.) | 
Y-(C)-EENYLDPEQYQYFIYF-(K(acetyl))-YKKK (YCEENYLDPEQYQYFIYFK(COCH2)YKKK; thioether 2-19) [SEQ ID NO: 450] |  |  |  |  |  |  | 36
